Laboratory results reported in patent publication US20260125382A1, “COMPOUNDS FOR INHIBITING OR DEGRADING CDK2 AND/OR CDK9 AND MEDICINAL USE THEREOF” (KOREA RESEARCH INSTITUTE OF CHEMICAL TECHNOLOGY, priority 2022, published 2026).

What was measured:
CDK2 = biological target: T1, CDK2 (Homo sapiens, UniProt P24941); experiment: CDK protein degradation activity (Western blotting), CDK2; format: cell-based; conditions: MDA-MB-231 cells, 16 hours, Western blot
T1 construct: endogenous in cells; host or cells: MDA-MB-231
How it was run: (§1)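 Protein levels were read by Western blot densitometry, tubulin serving as loading reference. Beforehand, MDA-MB-231 cells had been exposed for 16 hours to 100 nM, 1 μM or 10 μM compound, DMSO as control.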

CDK9 = biological target: T2, CDK9 (Homo sapiens, UniProt P50750); experiment: CDK protein degradation activity (Western blotting), CDK9; format: cell-based; conditions: MDA-MB-231 cells, 16 hours, Western blot
T2 construct: endogenous in cells; host or cells: MDA-MB-231
T2 sequence (P50750 whole entry): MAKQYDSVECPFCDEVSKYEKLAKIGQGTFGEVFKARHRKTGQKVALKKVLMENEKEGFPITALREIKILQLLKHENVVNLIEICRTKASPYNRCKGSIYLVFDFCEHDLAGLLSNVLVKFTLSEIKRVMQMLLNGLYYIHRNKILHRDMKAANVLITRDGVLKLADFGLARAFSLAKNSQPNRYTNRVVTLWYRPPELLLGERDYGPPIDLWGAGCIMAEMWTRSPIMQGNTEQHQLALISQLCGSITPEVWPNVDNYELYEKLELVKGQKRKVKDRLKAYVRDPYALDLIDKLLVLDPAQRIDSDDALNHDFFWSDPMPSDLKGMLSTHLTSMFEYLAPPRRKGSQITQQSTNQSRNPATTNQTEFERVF
How it was run: as §1

| SMILES | Enzyme degradation CDK2 (% remaining) @ 0.1 μM (CDK2) | Enzyme degradation CDK2 (% remaining) @ 1 μM (CDK2) | Enzyme degradation CDK2 (% remaining) @ 10 μM (CDK2) | Enzyme degradation CDK9 (% remaining) @ 0.1 μM (CDK9) | Enzyme degradation CDK9 (% remaining) @ 1 μM (CDK9) | Enzyme degradation CDK9 (% remaining) @ 10 μM (CDK9) |
| --- | --- | --- | --- | --- | --- | --- |
| Cc1cccc(C(=O)N[C@H]2C[C@@H](n3cnc4c(Nc5ccc(N6CCN(C7CC8(CCN(c9ccc%10nnn([C@H]%11CCC(=O)NC%11=O)c(=O)c%10c9)CC8)C7)CC6)cc5)ncnc43)C2)n1 [Compound 386, N-((1s,3s)-3-(6-((4-(4-(7-(3-(2,6-dioxopiperidin-3-yl)-4-oxo-3,4-dihydrobenzo[d][1,2,3]triazin-6-yl)-7-azaspiro[3.5]nonan-2-yl)piperazin-1-yl)phenyl)amino)-9H-purin-9-yl)cyclobutyl)-6-methylpicolinamide] | 20% | 10% | 10% | 0/0/0% | 0/0/0% | 0/0/0% |
| O=C1CCC(N2C(=O)c3cc(F)c(N4CCC(C(=O)N5CCC(CCN6CCN(c7ccc(Nc8ncnc9c8ncn9[C@H]8C[C@@H](NC(=O)c9c(Cl)cccc9Cl)C8)cc7)CC6)CC5)CC4)cc3C2=O)C(=O)N1 (stereo partly drawn) [Compound 463, 2,6-dichloro-N-((1s,3s)-3-(6-((4-(4-(2-(1-(1-(2-(2,6-dioxopiperidin-3-yl)-6-fluoro-1,3-dioxoisoindolin-5-yl)piperidin-4-carbonyl)piperidin-4-yl)ethyl)piperazin-1-yl)phenyl)amino)-9H-purin-9-yl)cyclobutyl)benzamide] | 30/30/30% | 30/30/30% | 30/30/30% | 0/0/0% | 0/0/0% | 0/0/0% |
| O=C(COc1ccc2c(c1)C(=O)N(C1CCC(=O)NC1=O)C2=O)NC[C@H]1CC[C@H](CN2CCN(c3ccc(Nc4ncnc5c4ncn5[C@H]4C[C@@H](NC(=O)Cc5ccccc5)C4)cc3)CC2)CC1 (stereo partly drawn) [Compound 221, 2-((2-(2,6-dioxopiperidin-3-yl)-1,3-dioxoisoindolin-5-yl)oxy)-N-(((1r,4r)-4-((4-(4-((9-((1s,3s)-3-(2-phenylacetamido)cyclobutyl)-9H-purin-6-yl)amino)phenyl)piperazin-1-yl)methyl)cyclohexyl)methyl)acetamide] | 100/100/100% | 100/100/100% | 100/100/100% | 100% | 60% | 0% |
| O=C1CC[C@@H](c2ccc(OCC(=O)N3CCC4(CC(N5CCN(c6ccc(Nc7ncnc8c7ncn8C7CC(NC(=O)Cc8ccccc8)C7)cc6)CC5)C4)C3)cc2)C(=O)N1 (stereo partly drawn) [Compound 268, N-((1s,3s)-3-(6-((4-(4-(6-(2-(4-(2,6-dioxopiperidin-3-yl)phenoxy)acetyl)-6-azaspiro[3.4]octan-2-yl)piperazin-1-yl)phenyl)amino)-9H-purin-9-yl)cyclobutyl)-2-phenylacetamide] | 70% | 50% | 20% | 70% | 0% | 0% |
| O=C1CC[C@H](N2C(=O)c3cccc(NCC(=O)N4CCC5(CC4)CC(N4CCN(c6ccc(Nc7ncnc8c7ncn8[C@H]7C[C@@H](NC(=O)Cc8ccccc8)C7)cc6)CC4)C5)c3C2=O)C(=O)N1 [Compound 204, N-((1s,3s)-3-(6-((4-(4-(7-((2-(2,6-dioxopiperidin-3-yl)-1,3-dioxoisoindolin-4-yl)glycyl)-7-azaspiro[3.5]nonan-2-yl)piperazin-1-yl)phenyl)amino)-9H-purin-9-yl)cyclobutyl)-2-phenylacetamide] | 20/20/20% | 20/20/20% | 20/20/20% | 0/0/0% | 0/0/0% | 0/0/0% |
| O=C1CC[C@H](N2C(=O)c3ccc(N4CC(C(=O)N5CCC(CN6CCN(c7ccc(Nc8ncnc9c8ncn9C8CC(NC(=O)Cc9ccccc9)C8)cc7)CC6)CC5)C4)cc3C2=O)C(=O)N1 (stereo partly drawn) [Compound 329, N-((1s,3s)-3-(6-((4-(4-((1-(1-(2-(2,6-dioxopiperidin-3-yl)-1,3-dioxoisoindolin-5-yl)azetidin-3-carbonyl)piperidin-4-yl)methyl)piperazin-1-yl)phenyl)amino)-9H-purin-9-yl)cyclobutyl)-2-phenylacetamide] | 50% | 50% | 60% | 10% | 0% | 0% |
| Cc1cccc(C(=O)N[C@H]2C[C@@H](n3cnc4c(Nc5ccc(N6CCN(C(=O)CNc7cccc8c7C(=O)N([C@H]7CCC(=O)NC7=O)C8=O)CC6)cc5)ncnc43)C2)n1 [Compound 87, N-((1s,3s)-3-(6-((4-(4-((2-(2,6-dioxopiperidin-3-yl)-1,3-dioxoisoindolin-4-yl)glycyl)piperazin-1-yl)phenyl)amino)-9H-purin-9-yl)cyclobutyl)-6-methylpicolinamide] | 90% | 70% | 50% | 50% | 50% | 40% |
| O=C1CCC(N2C(=O)c3cccc(OCC(=O)N4CCN(CCCN5CCN(c6ccc(Nc7ncnc8c7ncn8[C@H]7C[C@@H](NC(=O)Cc8ccccc8)C7)cc6)CC5)CC4)c3C2=O)C(=O)N1 (stereo partly drawn) [Compound 232, N-((1s,3s)-3-(6-((4-(4-(3-(4-(2-((2-(2,6-dioxopiperidin-3-yl)-1,3-dioxoisoindolin-4-yl)oxy)acetyl)piperazin-1-yl)propyl)piperazin-1-yl)phenyl)amino)-9H-purin-9-yl)cyclobutyl)-2-phenylacetamide] | 60% | 20% | 20% | 90% | 10% | 0% |
| O=C1CC[C@@H](c2cccc(OCC(=O)N3CCC4(CC3)CC(N3CCC(c5ccc(Nc6ncnc7c6ncn7C6CC(NC(=O)Cc7ccccc7)C6)cc5)CC3)C4)c2)C(=O)N1 (stereo partly drawn) [Compound 285, N-((1s,3s)-3-(6-((4-(1-(7-(2-(3-(2,6-dioxopiperidin-3-yl)phenoxy)acetyl)-7-azaspiro[3.5]nonan-2-yl)piperidin-4-yl)phenyl)amino)-9H-purin-9-yl)cyclobutyl)-2-phenylacetamide] | 10% | 20% | 20% | 0/0/0% | 0/0/0% | 0/0/0% |
| O=C1CC[C@H](n2nnc3ccc(N4CCN(CCCC5CCN(c6ccc(Nc7ncnc8c7ncn8C7CC(NC(=O)Cc8ccccc8)C7)cc6)CC5)CC4)cc3c2=O)C(=O)N1 (stereo partly drawn) [Compound 349, N-((1s,3s)-3-(6-((4-(4-(3-(4-(3-(2,6-dioxopiperidin-3-yl)-4-oxo-3,4-dihydrobenzo[d][1,2,3]triazin-6-yl)piperazin-1-yl)propyl)piperidin-1-yl)phenyl)amino)-9H-purin-9-yl)cyclobutyl)-2-phenylacetamide] | 0/0/0% | 0/0/0% | 0/0/0% | 30% | 20% | 20% |
| O=C1CC[C@H](N2C(=O)c3ccc(N4CCC(CN5CCN(c6ccc(Nc7ncnc8c7ncn8C7CC(NC(=O)c8cccc(C(F)(F)F)n8)C7)cc6)CC5)CC4)cc3C2=O)C(=O)N1 (stereo partly drawn) [Compound 393, N-((1s,3s)-3-(6-((4-(4-((1-(2-(2,6-dioxopiperidin-3-yl)-1,3-dioxoisoindolin-5-yl)piperidin-4-yl)methyl)piperazin-1-yl)phenyl)amino)-9H-purin-9-yl)cyclobutyl)-6-(trifluoromethyl)picolinamide] | 10/10/10% | 10/10/10% | 10/10/10% | 0/0/0% | 0/0/0% | 0/0/0% |
| O=C1CCC(c2ccc(OCC(=O)N3CC(CN4CCC5(CC4)CC(N4CCN(c6ccc(Nc7ncnc8c7ncn8[C@H]7C[C@@H](NC(=O)Cc8ccccc8)C7)cc6)CC4)C5)C3)cc2)C(=O)N1 (stereo partly drawn) [Compound 275, N-((1s,3s)-3-(6-((4-(4-(7-((1-(2-(4-(2,6-dioxopiperidin-3-yl)phenoxy)acetyl)azetidin-3-yl)methyl)-7-azaspiro[3.5]nonan-2-yl)piperazin-1-yl)phenyl)amino)-9H-purin-9-yl)cyclobutyl)-2-phenylacetamide] | 80% | 60% | 60% | 70% | 30% | 0% |
